Test results: patent US20260028356A1, “1,3,4,7-TETRAHYDRO-2H-PYRROLO[3',2':5,6]PYRIDO[2,3-B][1,4]OXAZEPINE BCL-2 INHIBITORS” (AbbVie Inc., priority 2022, published 2026)
Values joined by “and” are separate entries in the source; they are usually repeats but may differ in a detail not shown here. Equal values may be shown once. Blank lines part the entries; values can stand above or below the compound they belong to.

Columns and labels:
[1] = system: Molt-4 cells; test: Cell Viability Assay (CellTiter-Glo) in Molt-4 cells (counter screen); type: cell-based; conditions: 24 hours, 10% Human Serum
Experimental: (§1) The acute lymphoblastic leukemia (ALL) human cell line RS4;11 (ATCC, Manassas VA) was used as the primary human cell line to assess the cellular activity of compound of the present Examples in vitro and their efficacy in vivo. […] The acute lymphoblastic leukemia cell line Molt-4, which is derived from immature T-lymphoid cells (T-ALL), was used as a counter screen assay.
(§2) 3000 Cells (0.1×10^6/mL) were seeded in each well of 384-well plate and were treated for 24 hours in a humidified chamber with 5% CO2. Cell viability was determined by CellTiter-Glo as described by the manufacturer's instructions (Promega Corporation, Madison, WI, USA).

[2] = system: RS4;11 cells; test: Cell Viability Assay (CellTiter-Glo) in RS4;11 cell line; type: cell-based; conditions: 24 hours, 10% Human Serum
Experimental: as §1, §2

[3] = Bioavailability study: pharmacokinetics after single intravenous or oral dose in mouse; type: in vivo, CD-1 mice (male)
Experimental: Studies were conducted to evaluate the pharmacokinetic profiles of Example 25 herein and Example 2 in WO 2019/040550 after single intravenous or oral dose in mouse. CD-1 mice (male) were obtained from Charles River Laboratories (Wilmington, MA).
The pharmacokinetics of Example 25 herein and Example 2 in WO 2019/040550 were evaluated following single 1 mg/kg intravenous or oral doses in mouse. Example 25 herein and Example 2 in WO 2019/040550 were prepared as a solution in DMSO:Tween 80:PEG-400:Dextrose 5% in Water (5:5:20:70, v/v) for the IV and oral dose mouse studies. The intravenous dose was administered as a slow bolus to the penile vein under isoflurane anesthesia. The oral doses were administrated by gavage. Serial blood samples were obtained […], 0.25, 0.5, 1.0, 4, 6, 9, 12, 24, 32 and 48 hours post dosing and […]. Plasma was separated by centrifugation and stored frozen (<−15° C.) until analysis.
HPLC-MS/MS bioanalytical methods were utilized for the quantitation of Example 25 herein and Example 2 in WO 2019/040550 concentration in plasma. The analytical methods used protein precipitation to extract compound from plasma. All samples were combined with a minimum two volume equivalents of organic solvent containing internal standard, vortexed and then centrifuged to pellet the proteins. Supernatants were used for subsequent analysis by liquid chromatography-tandem mass spectrometry (LC-MS/MS). Studies involving quantitative analysis employed spiked standards in plasma that were processed simultaneously with the samples.
Analytes were separated using reverse phase chromatography on a C8 or C18 column prior to analysis on an API5500m (or higher) mass spectrometer with a Turbo-Ion Spray source. Peak areas were determined using Sciex Analyst™ 1.6 (or higher) software or Sound Analytics DiscoveryQuant™ 2.0 (or higher) software. Actual concentrations (when required) were calculated by regression analysis of the peak area ratio (parent/internal standard) of the spiked standards versus concentrations.
Peak plasma concentrations (Cmax) and the time to peak plasma concentration (Tmax) were determined directly from the plasma concentration data for each animal. The compound plasma concentration data were submitted to multi-exponential curve fitting using WinNonlin software. The area under the plasma concentration-time curve from 0 to t hours after dosing (AUC0-t, t=time of the last measurable plasma concentration) was calculated using the linear trapezoidal rule. The residual area extrapolated to infinity, determined as the final measured plasma concentration (Ct) divided by the terminal plasma elimination rate constant (β), was added to the AUC0-t to produce the total area under the curve (AUC0-∞). The apparent total plasma clearance (CLp) was calculated by dividing the administered dose by the AUC0-∞. Half-life (t1/2) was determined with the following calculation: t1/2=ln (2)/elimination rate constant. The initial volume of distribution (Vc) was calculated as the dose divided by the extrapolated concentration at time=0 (C0). The volume of distribution at steady state, Vss, was estimated as a product of the total plasma clearance (CLp) and the mean residence time (MRT); the terminal-phase volume of distribution, Vβ, was derived from the total plasma clearance value (CLp) divided by the terminal plasma elimination rate constant ((3). Oral bioavailability (F) was calculated as the dose-normalized AUC0-∞ (AUC0-∞/D) from the oral dose divided by the corresponding dose normalized AUC0-∞ from intravenous dosing.

Compound: C[C@H]1CCC(CNc2ccc(S(=O)(=O)NC(=O)c3ccc(N4CCN5CC6=C(c7ccc(Cl)cc7)CC(C)(C)C[C@H]6OCCCOC[C@@H]5C4)cc3N3CCCOc4nc5[nH]ccc5cc43)cc2[N+](=O)[O-])OC1 (stereo partly drawn) [Example 23, 4-((4aS,10aR)-14-(4-chlorophenyl)-12,12-dimethyl-1,2,4a,5,8,9,10a,11,13,15-decahydro-7H,12H-benzo[f]pyrazino[2,1-c][1,8]dioxa[4]azacycloundecin-3(4H)-yl)-2-(3,4-dihydro-2H-pyrrolo[3′,2′:5,6]pyrido[2,3-b][1,4]oxazepin-1(7H)-yl)-N-((4-((((2R,5S)-5-methyltetrahydro-2H-pyran-2-yl)methyl)amino)-3-nitrophenyl)sulfonyl)benzamide]
EC50 [1]: > 10 µM

EC50 [2]: 0.329 nM
Compound: CC1(C)CC(c2ccc(Cl)cc2)=C2CN3CCN(c4ccc(C(=O)NS(=O)(=O)c5ccc(NC[C@@H]6CC[C@@H](O)CO6)c([N+](=O)[O-])c5)c(N5CCCOc6nc7[nH]ccc7cc65)c4)C[C@H]3COCCCO[C@@H]2C1 [Example 27, 4-((4aS,10aR)-14-(4-chlorophenyl)-12,12-dimethyl-1,2,4a,5,8,9,10a,11,13,15-decahydro-7H,12H-benzo[f]pyrazino[2,1-c][1,8]dioxa[4]azacycloundecin-3(4H)-yl)-2-(3,4-dihydro-2H-pyrrolo[3′,2′:5,6]pyrido[2,3-b][1,4]oxazepin-1(7H)-yl)-N-((4-((((2S,5R)-5-hydroxytetrahydro-2H-pyran-2-yl)methyl)amino)-3-nitrophenyl)sulfonyl)benzamide]
EC50 [1]: 0.535 µM

AUC ([3]; IV 1 mg/kg, individual mouse): 11200 ng·h/mL and 12900 ng·h/mL
CLp ([3]; IV 1 mg/kg, individual mouse): 0.077 L/h/kg
MRT ([3]; IV 1 mg/kg, individual mouse): 10 h
Vβ ([3]; IV 1 mg/kg, individual mouse): 1.0 L/kg and 0.90 L/kg
AUC ([3]; PO 1 mg/kg, individual mouse): 4330 ng·h/mL and 4490 ng·h/mL
Tmax ([3]; PO 1 mg/kg, individual mouse): 4.0 h
t1/2 ([3]; PO 1 mg/kg, individual mouse): 8.7 h and 10 h
Tmax ([3]; PO 1 mg/kg, mean): 4.0 h
Compound: CO[C@@H]1CC[C@@H](CNc2ccc(S(=O)(=O)NC(=O)c3ccc(N4CCN5CC6=C(c7ccc(Cl)cc7)CC(C)(C)C[C@H]6OCCCOC[C@@H]5C4)cc3N3CCCOc4nc5[nH]ccc5cc43)cc2[N+](=O)[O-])OC1 [Example 25, 4-((4aS,10aR)-14-(4-chlorophenyl)-12,12-dimethyl-1,2,4a,5,8,9,10a,11,13,15-decahydro-7H,12H-benzo[f]pyrazino[2,1-c][1,8]dioxa[4]azacycloundecin-3(4H)-yl)-2-(3,4-dihydro-2H-pyrrolo[3′,2′:5,6]pyrido[2,3-b][1,4]oxazepin-1(7H)-yl)-N-((4-((((2S,5R)-5-methoxytetrahydro-2H-pyran-2-yl)methyl)amino)-3-nitrophenyl)sulfonyl)benzamide]

Compound: COC1(CNc2ccc(S(=O)(=O)NC(=O)c3ccc(N4CCN5CC6=C(c7ccc(Cl)cc7)CC(C)(C)C[C@H]6OCCCOC[C@@H]5C4)cc3N3CCCOc4nc5[nH]ccc5cc43)cc2[N+](=O)[O-])CCOCC1 [Example 26, 4-((4aS,10aR)-14-(4-chlorophenyl)-12,12-dimethyl-1,2,4a,5,8,9,10a,11,13,15-decahydro-7H,12H-benzo[f]pyrazino[2,1-c][1,8]dioxa[4]azacycloundecin-3(4H)-yl)-2-(3,4-dihydro-2H-pyrrolo[3′,2′:5,6]pyrido[2,3-b][1,4]oxazepin-1(7H)-yl)-N-((4-(((4-methoxytetrahydro-2H-pyran-4-yl)methyl)amino)-3-nitrophenyl)sulfonyl)benzamide]
EC50 [1]: > 10 µM
